This passage reports disinfectant effect results from US8663668B2, “Preservative for medical devices” (Fresenius Medical Care Deutschland GmbH, priority 2004, dated 2014).

A short description of this assay: antimicrobial effectiveness test (USP 27), disinfectant/preservative effect. It is filed as cell-based. The conditions noted are these: additive alone. From the text:
Within the context of the present invention, preferably poly(hexamethylene)biguanide having a molecular weight of 2900 to 15,000 (PHMB) is used as the biguanide compound. An especially preferred disinfection solution contains PHMB in a concentration of 0.01% to 0.5% by weight, where concentrations of 0.02% to 0.06% by weight are especially advantageous. A neutral buffer containing phosphate, and preferably also containing the following substances is used as the medium: sodium citrate dihydrate, sodium acetate trihydrate, sodium chloride, sodium monohydrogen phosphate, potassium dihydrogen phosphate. Such a solution effectively disinfects and preserves the aforementioned medical devices and is in compliance with the requirements of the “antimicrobial effectiveness tests” described in USP 27 (United States Pharmacopoeia).
An adsorber column of the type IMMUNOSORBA (Fresenius Adsorber Technology GmbH) is used to remove antibodies from blood plasma and binds the antibodies via protein A of Staphylococcus aureus. This adsorber column is filled with a solution according to Example 1.

As to `N[C@@H](Cc1c[nH]c2ccccc12)C(=O)O` [Tryptophan, tryptophan], the disinfectant effect result is “does not have any disinfectant effect”.
